# Test results reported in article PMC6437058 (mBio, 2019).
# Biological target: anthranilate synthase TrpE (Rv1609) (Mycobacterium tuberculosis, UniProt P9WFX3)
# Test: biochemical
# Chain of anthranilate synthase TrpE (Rv1609) (P9WFX3 whole entry): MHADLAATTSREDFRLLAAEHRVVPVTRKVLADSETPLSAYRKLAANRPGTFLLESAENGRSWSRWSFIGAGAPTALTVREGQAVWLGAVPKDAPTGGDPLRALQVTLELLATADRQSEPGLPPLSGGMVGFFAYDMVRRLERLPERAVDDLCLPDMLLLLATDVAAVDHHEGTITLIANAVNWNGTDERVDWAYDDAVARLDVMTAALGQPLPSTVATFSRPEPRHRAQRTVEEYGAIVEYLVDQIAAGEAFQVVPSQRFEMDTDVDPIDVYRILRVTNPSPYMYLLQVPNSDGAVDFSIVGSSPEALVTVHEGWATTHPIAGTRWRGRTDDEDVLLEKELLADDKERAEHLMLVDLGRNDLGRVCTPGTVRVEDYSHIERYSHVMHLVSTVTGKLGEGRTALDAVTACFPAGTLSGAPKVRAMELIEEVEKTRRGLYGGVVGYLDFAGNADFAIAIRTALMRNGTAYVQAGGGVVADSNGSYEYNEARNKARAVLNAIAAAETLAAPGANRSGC
smiles,measurement,value
"N[C@@H](Cc1c[nH]c2ccc(F)cc12)C(=O)O [F-Trp, 5-fluoro-L-tryptophan]",IC50,4.1 µM
